Consider 4 molecules from US7589186B2, “Isolated hOAT polynucleotide” (priority 1998, dated 2009).

For one series, the system named is CHO-hOAT cells. Put plainly: Cytotoxicity in CHO-hOAT compared to CHO cells. Type of series: cell-based, Chinese hamster. To be noted: for fold more cytotoxic in CHO-hOAT compared to CHO cells: without probenecid. The text has this: (§1) Uptake and cytotoxicity of ADV in the two cell lines was compared.
In another series the target is hOAT (Homo sapiens, UniProt Q4U2R8). Put plainly: Uptake of antiviral nucleotides (ADV, CDV, cCDV) in CHO-hOAT versus CHO cells. The following applies: for Vmax of uptake by CHO-hOAT / accumulation in CHO-hOAT (in words): CHO-hOAT cells. Here is the method:
pIRES-hOAT plasmid was transfected into CHO-K1 cells (ATCC CCL61) growing in F-12 nutrient mixture supplemented with 10% fetal bovine serum, 100 U/ml penicillin, and 100 μg/ml streptomycin. 24 hours before transfection, approximately 6×10^6 CHO-K1 cells were seeded into 100-mm Petri dish. At the time of transfection, media was aspirated and 6 ml of fresh media containing 12 μg of pIRES-hOAT and 60 μg of Cytofectin GSV cationic lipid (Glen Research, Sterling, Va.) was added to the cells. Following overnight incubation, selection of stable transformants started in phenol red-free F-12 nutrient mixture containing fetal bovine serum, penicillin and streptomycin as above, plus 1 mg/ml G418 (CLONTECH). […] For the PAH uptake assay, the cells were seeded into 12-well plates at the density of 2×10^5 cell/well. After 48 hours, growth media was aspirated and the cells were washed twice with phosphate buffered saline (PBS). […] After 90 min incubation at 37° C. in the transport buffer, the cells were washed 3-times with ice-cold PBS (2 ml/well) and lysed directly on the plate in the presence of 0.3% Triton X-100 (0.5 ml/well) for 20 min at room temperature. Plates were washed with additional 0.5 ml/well of Triton X-100, the lysate and wash were combined, scintillation fluid was added, and the radioactivity counted.
as §1

Substrate in series [1]: Nc1ccn(C[C@@H](CO)OCP(=O)(O)O)c(=O)n1
Put plainly: cells, lysate or membranes. To be noted: other: CHO-hOAT cells; pH 7.2; 37.0 °C.

Substrate in series [2]: Nc1ncnc2c1ncn2CCOCP(=O)(O)O
Put plainly: cells, lysate or membranes. The following applies: other: CHO-hOAT cells; pH 7.2; 37.0 °C.

As to `Nc1ncnc2c1ncn2CCOCP(=O)(O)O` [ADV, Adefovir], in the series with CHO-hOAT cells (in the presence of 1 mM PBC), the “fold more susceptible CHO-hOAT than CHO in the presence of PBC” value turned out to be 3 fold. Besides, the “fold more cytotoxic in CHO-hOAT compared to CHO cells” value with CHO-hOAT cells was roughly 500 fold. Also, the “Vmax of uptake by CHO-hOAT” value at hOAT was determined as 390 pmol/10^6 cells. The “accumulation in CHO-hOAT compared to CHO” value at hOAT (CHO-hOAT vs CHO cells) is greater than 300 fold.

With `Nc1ccn(C[C@@H](CO)OCP(=O)(O)O)c(=O)n1` [CDV, cidofovir], the “effect of PBC on cytotoxicity (in words)” value with CHO-hOAT cells (CHO-hOAT cells, with PBC) was “significantly reduced by PBC”. The “fold more cytotoxic in CHO-hOAT compared to CHO cells” value with CHO-hOAT cells is given as greater than 400 fold. Also, at hOAT, the “Vmax of uptake by CHO-hOAT” value was 1,110 pmol/10^6 cells and the “accumulation in CHO-hOAT (in words)” value was “efficiently accumulated”.

As for `Nc1ccn(C[C@H]2COP(=O)(O)CO2)c(=O)n1` [cCDV], in the series with CHO-hOAT cells, the “increase of cytotoxicity in CHO-hOAT cells (in words)” value is “increased to much lesser extent”. Further, the “accumulation in CHO-hOAT (in words)” value on hOAT is “not”.

B1: hOAT (Homo sapiens) (protein)
chain: MAFNDLLQQVGGVGRFQQIQVTLVVLPLLLMASHNTLQNFTAAIPTHHCRPPADANLSKNGGLEVWLPRDRQGQPESCLRFTSPQWGLPFLNGTEANGTGATEPCTDGWIYDNSTFPSTIVTEWDLVCSHRALRQLAQSLYMVGVLLGAMVFGYLADRLGRRKVLILNYLQTAVSGTCAAFAPNFPIYCAFRLLSGMALAGISLNCMTLNVEWMPIHTRACVGTLIGYVYSLGQFLLAGVAYAVPHWRHLQLLVSAPFFAFFIYSWFFIESARWHSSSGRLDLTLRALQRVARINGKREEGAKLSMEVLRASLQKELTMGKGQASAMELLRCPTLRHLFLCLSMLWFATSFAYYGLVMDLQGFGVSIYLIQVIFGAVDLPAKLVGFLVINSLGRRPAQMAALLLAGICILLNGVIPQDQSIVRTSLAVLGKGCLAASFNCIFLYTGELYPTMIRQTGMGMGSTMARVGSIVSPLVSMTAELYPSMPLFIYGAVPVAASAVTVLLPETLGQPLPDTVQDLESRKGKQTRQQQEHQKYMVPLQASAQEKNGL
In general, Km refers to the concentration of substrate that gives half-maximal velocity. For B1, the figures for the Km in series [1] and in series [2] were 70 µM and 23 µM, respectively.
